We go through 72 compounds from patent publication US10278942B2 (PELOTON THERAPEUTICS, INC., priority 2015, dated 2019).

In one assay the target is T1, HIF-2α HIS TAG-PASB Domain (Homo sapiens, UniProt Q99814).
T1 construct: 100 nM HIF-2α HIS TAG-PASB Domain
T1 sequence (Q99814 240-350 limits assumed): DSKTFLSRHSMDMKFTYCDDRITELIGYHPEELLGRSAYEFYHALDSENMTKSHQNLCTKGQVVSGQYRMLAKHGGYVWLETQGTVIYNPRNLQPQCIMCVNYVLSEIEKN
As to the kind of experiment: HIF-2α Scintillation Proximity Assay (SPA). The format is binding. Particulars: Scintillation Proximity Assay IC50 (nM). As for the experimental part:
The total assay volume was about 100 μL in the following configuration: 2 μL compound in 100% DMSO, 88 μL buffer with protein and probe and 10 μL of SPA beads. […] The percent inhibition was determined and IC50 values were calculated using the Dotmatics system based on the following equation: % inhibition=[(high control−sample)/(high control−low control)]×100.
For orientation: IC50 means the concentration that gives 50% inhibition. `O=S1(=O)c2ccc(Oc3cc(F)cc(Cl)c3)c(C(F)F)c2C(O)C1(F)F` (stereo not drawn) [Compound 364] yielded an IC50 below 50 nM.
`N#Cc1cc(S(=O)(=O)C(F)(F)F)ccc1Oc1cc(F)cc(Cl)c1` [Compound 119] came in with an IC50 of 50 to 249 nM.

The assay is the same for the next values; noted with them: read-out: Scintillation Proximity Assay IC50.
In the case of `CCc1ccc(S(=O)(=O)C(F)(F)F)c2c1CCC2O` (stereo not drawn) [Compound 514], the IC50 was above 1000 nM.
On the same count and under the same terms, to `C=CC1(O)c2c(ccc(Oc3cc(F)cc(C#N)c3)c2C#N)S(=O)(=O)C1(F)F` (stereo not drawn) [Compound 460] belongs above 1000 nM.
Still for that read-out and setting: to `COc1ccc(S(C)(=O)=O)c2c1CC(F)(F)[C@H]2O` [Compound 777] belongs above 1000 nM; to `CS(=O)(=O)c1ccc(OCCC2(C#N)CC2)c2c1[C@H](O)C(F)(F)[C@@H]2F` [Compound 772], above 1000 nM; to `COc1ccc(I)c2c1CC(F)(F)C2O` (stereo not drawn) [Compound 679], above 1000 nM.
As to `O=S(=O)(c1ccc(Oc2ccc(F)cc2F)c(Br)c1)C(F)(F)F` [Compound 175], the half-maximal inhibitory concentration (IC50) was above 1000 nM.
The same measure, in the same setting: in the case of `N#Cc1c(Oc2cc(F)cc(Cl)c2)ccc(S(=O)(=O)C(F)(F)F)c1C(=O)O` [Compound 105] it was above 1000 nM.
The same measure, in the same setting: to `CS(=O)(=O)c1ccc(N2CCC[C@@H](O)C2)c2c1[C@H](O)C(F)(F)[C@@H]2F` [Compound 553] belongs above 1000 nM; to `O=C1c2c(C(F)(F)F)ccc(OCC(F)F)c2CC1(F)F` [Compound 695], above 1000 nM; to `O[C@H]1c2c(OCC(F)F)ccc(C(F)(F)F)c2[C@@H](F)C1(F)F` [Compound 689], above 1000 nM.
Still for that read-out and setting: in the case of `COc1cncc(Oc2ccc3c(c2Br)[C@@H](O)C(F)(F)S3(=O)=O)c1` [Compound 429] it was above 1000 nM; in that of `CS(=O)(=O)c1ccc(Oc2cc(F)cc(C#N)c2)c2c1[C@H](O)CC2(F)F` [Compound 288], above 1000 nM.
Turning to `N#Cc1ccc(F)c2c1CC(F)(F)C2O` (stereo not drawn) [Compound 519], the half-maximal inhibitory concentration (IC50) was above 1000 nM.
On the same count and under the same terms, in the case of `N#Cc1cc(F)cc(Oc2ccc3c(c2C#N)C(O)(C(F)(F)F)CS3(=O)=O)c1` (stereo not drawn) [Compound 450] it was above 1000 nM; in that of `O=C1Cc2ccc(-c3ccc(S(=O)(=O)C(F)(F)F)c4c3CC(F)(F)[C@H]4O)cc2N1` [Compound 567], above 1000 nM.
On the same count and under the same terms, to `CS(=O)(=O)N=S(=O)(CF)c1ccc(Oc2cc(F)cc(C#N)c2)c2c1[C@H](O)C(F)(F)C2` (stereo partly drawn) [Compound 284] belongs above 1000 nM.
Still for that read-out and setting: to `O=S(=O)(c1ccc(CCCO)c2c1C(O)CC2)C(F)(F)F` (stereo not drawn) [Compound 522, 4-(3-hydroxypropyl)-7-((trifluoromethyl)sulfonyl)-2,3-dihydro-1H-inden-1-ol] belongs 250 to 1000 nM; to `CC(=O)c1c(S(=O)(=O)C(F)(F)F)ccc(Oc2cc(F)cc(C#N)c2)c1C#N` [Compound 79], above 1000 nM; to `Cc1cc(C)cc(Oc2ccc(S(=O)(=O)C(F)(F)F)cc2Br)c1` [Compound 173], above 1000 nM.
`O=S(=O)(c1ccc(Oc2cc(F)cc3[nH]ncc23)c2c1C(O)C(F)(F)C2)C(F)(F)F` (stereo not drawn) [Compound 262]: the IC50 was above 1000 nM.
On the same count and under the same terms, to `N#CN=S(=O)(CF)c1ccc(Oc2cc(F)cc(C#N)c2)c2c1[C@H](O)CC2` (stereo partly drawn) [Compound 282] belongs above 1000 nM; to `OC1c2c(I)cc(I)c(OCC(F)F)c2CC1(F)F` (stereo not drawn) [Compound 666], above 1000 nM.
Same read-out and setting: to `O=S(=O)(CF)c1ccc(Oc2cccc3sccc23)c2c1C(O)CC2` (stereo not drawn) [Compound 239] belongs above 1000 nM.
As for `Cc1cc(C#N)cc(Oc2ccc3c(c2C(F)F)C(=O)C(F)(F)S3(=O)=O)c1` [Compound 391], the 50% inhibitory concentration (IC50) is above 1000 nM.
Same read-out and setting: in the case of `CCCc1ccc(S(=O)(=O)C(F)(F)F)c2c1CCC2O` (stereo not drawn) [Compound 515] it was above 1000 nM.
As to `CS(=O)(=O)c1ccc(O[C@H]2C[C@@H](C(N)=O)C2)c2c1[C@H](O)C(F)(F)[C@@H]2F` [Compound 763], the half-maximal inhibitory concentration (IC50) is above 1000 nM.
The same measure, in the same setting: to `CS(=O)(=O)c1ccc(Oc2cc(F)cc(C#N)c2)c2c1[C@H](N)C(F)(F)[C@@H]2F` [Compound 346] belongs 250 to 1000 nM.
As to `CNCc1c(S(=O)(=O)C(F)(F)F)ccc(Oc2cc(F)cc(Cl)c2)c1Cl` [Compound 113], the IC50 is above 1000 nM.
On to `O=S(=O)(CF)c1ccc(Oc2cc(F)cc(Cl)c2)c(Br)c1` [Compound 137], for which the IC50 was in the range of 250 to 1000 nM.
Same read-out and setting: in the case of `O=S(=O)(c1ccc(Oc2cc(F)cc(Cl)c2)c(CO)c1CO)C(F)F` [Compound 87] it was above 1000 nM; in that of `O=S(=O)(c1ccc(Cn2ccnn2)c2c1[C@H](O)C(F)(F)C2)C(F)(F)F` [Compound 536], above 1000 nM; in that of `O=S(=O)(c1ccc(Oc2ccc3[nH]ncc3c2)c2c1C(O)C(F)(F)C2)C(F)(F)F` (stereo not drawn) [Compound 238], above 1000 nM.
Same read-out and setting: in the case of `CCOc1ccc(C(F)(F)F)c2c1CC[C@H]2O` [Compound 673] it was above 1000 nM.
As to `CNCc1c(S(=O)(=O)C(F)(F)F)ccc(Oc2cc(F)cc(Cl)c2)c1Br` [Compound 109], the IC50 was above 1000 nM.
For `O=S(=O)(c1ccc(Oc2cc(F)cc(Cl)c2)c(Cl)c1CNC1CCCOC1)C(F)F` (stereo not drawn) [Compound 49], the IC50 is above 1000 nM.
On the same count and under the same terms, to `CS(=O)(=NC#N)c1ccc(Oc2cncc(C#N)c2)c2c1[C@@H](O)C(F)(F)[C@@H]2F` (stereo partly drawn) [Compound 320] belongs above 1000 nM.
`O=C1c2c(ccc(Oc3cc(F)cc(Cl)c3)c2Br)S(=O)(=O)C1(F)F` [Compound 354]: the IC50 was above 1000 nM.
For `N#Cc1ccc(Oc2cc(F)cc(F)c2)c2c1[C@H](O)CC2` [Compound 66], the IC50 is above 1000 nM.
The same measure, in the same setting: in the case of `CS(=O)(=O)N1CCC(Oc2ccc(S(=O)(=O)C(F)(F)F)c3c2CC(F)(F)C3O)C1` (stereo not drawn) [Compound 630] it was above 1000 nM; in that of `CCOc1ccc2c(c1C(F)F)[C@@H](O)C(F)(F)S2(=O)=O` [Compound 438], above 1000 nM.
As for `CS(=O)(=NC#N)c1ccc(Oc2cncc(C#N)c2)c2c1[C@H](O)C(F)(F)[C@@H]2F` (stereo partly drawn) [Compound 319], the IC50 was below 50 nM.
Same read-out and setting: in the case of `CC(C)Oc1ccc(S(=O)(=O)C(F)(F)F)c2c1CCC2O` (stereo not drawn) [Compound 592] it was above 1000 nM; in that of `O=S(=O)(c1ccc(Cc2ccccc2)c2c1C(O)CC2)C(F)(F)F` (stereo not drawn) [Compound 510], above 1000 nM.
Same read-out and setting: in the case of `N#Cc1cncc(Oc2ccc(S(=O)(=O)CF)c3c2[C@H](F)C(F)(F)[C@H]3O)c1` [Compound 345] it was above 1000 nM; in that of `O=S(=O)(c1ccc(Cn2nccn2)c2c1[C@H](O)C(F)(F)C2)C(F)(F)F` [Compound 535], above 1000 nM; in that of `CS(=O)(=O)c1ccc(Nc2cncc(Cl)c2)c2c1C(O)C(F)(F)C2` (stereo not drawn) [Compound 500], above 1000 nM.
Still for that read-out and setting: in the case of `Nc1ccc(Cl)cc1-c1ccc(S(=O)(=O)C(F)(F)F)c2c1CC(F)(F)[C@H]2O` [Compound 540] it was above 1000 nM; in that of `N=S1(=O)c2ccc(Oc3cc(F)cc(F)c3)c(C(F)F)c2C(O)C1(F)F` (stereo not drawn) [Compound 399], 50 to 249 nM; in that of `NC(=O)Cc1ccc(S(=O)(=O)C(F)(F)F)c2c1CC[C@H]2O` [Compound 525], above 1000 nM.
Turning to `N#CCS(=O)(=O)c1ccc(Oc2cc(F)cc(F)c2)c2c1C(O)CC2` (stereo not drawn) [Compound 14], the IC50 was above 1000 nM.
On the same count and under the same terms, in the case of `CS(=O)(=O)c1ccc(OC[C@H]2CC2(F)F)c2c1[C@H](O)C(F)(F)[C@@H]2F` [Compound 769] it was 50 to 249 nM.
The same measure, in the same setting: in the case of `OC1CCc2c(OCC(F)F)ccc(C(F)(F)F)c21` (stereo not drawn) [Compound 662] it was above 1000 nM; in that of `NS(=O)(=O)c1ccc(Oc2cncc(F)c2)c2c1[C@H](O)C(F)(F)[C@@H]2F` [Compound 341], below 50 nM.
With `N#Cc1c(Oc2cc(F)cc(Cl)c2)ccc2c1[C@H](O)CS2(=O)=O` [Compound 407], the IC50 is above 1000 nM.
The same measure, in the same setting: to `O=S(=O)(c1ccc(Nc2ccc(F)c(Cl)c2)c2c1C(O)CC2)C(F)(F)F` (stereo not drawn) [Compound 504] belongs above 1000 nM.
With `CN(C)Cc1c(S(=O)(=O)C(F)F)ccc(Oc2cc(F)cc(Cl)c2)c1C#N` [Compound 36], the IC50 was above 1000 nM.
Still for that read-out and setting: in the case of `N=S1(=O)c2ccc(Oc3cc(F)cc(F)c3)c(Br)c2C(O)C1(F)F` (stereo not drawn) [Compound 378] it was 50 to 249 nM; in that of `O=S(=O)(c1ccc(O[C@H]2CCCc3cn[nH]c32)c2c1[C@H](O)C(F)(F)C2)C(F)(F)F` [Compound 732], above 1000 nM.
On the same count and under the same terms, to `N#Cc1cc(F)cc(Oc2ccc(S(=N)(=O)C(F)(F)F)cc2C#N)c1` (stereo not drawn) [Compound 73] belongs above 1000 nM.
The same measure, in the same setting: in the case of `COC(C)COc1ccc(S(=O)(=O)C(F)(F)F)c2c1CCC2O` (stereo not drawn) [Compound 625] it was above 1000 nM; in that of `CS(=O)(=O)c1ccc(Oc2cncc(Br)c2)c2c1[C@H](O)[C@H](F)[C@@H]2F` [Compound 328], below 50 nM.
`O=S(=O)(c1ccc(Oc2cc(F)cc(Cl)c2)c(Cl)c1CNC1CCOCC1)C(F)F` [Compound 48]: the IC50 was in the range of 250 to 1000 nM.
The same measure, in the same setting: in the case of `N#Cc1cc(F)cc(Oc2ccc3c(c2C(F)F)C(N)C(F)(F)S3(=O)=O)c1` (stereo not drawn) [Compound 372] it was below 50 nM.
On to `O=S(=O)(c1ccc(-c2ccn[nH]2)c2c1[C@H](O)C(F)(F)C2)C(F)(F)F` [Compound 561], for which the IC50 is above 1000 nM.
On the same count and under the same terms, in the case of `CC1(Oc2ccc(S(=O)(=O)C(F)(F)F)c3c2CC(F)(F)[C@H]3O)COC1` [Compound 785] it was above 1000 nM.
`CCS(=O)(=O)c1ccc(Oc2cc(F)cc(C#N)c2)c2c1C(O)CC2` (stereo not drawn) [Compound 205]: the IC50 is above 1000 nM.
Regarding `N#Cc1cncc(Oc2ccc(S(=O)(=O)CF)c3c2[C@@H](F)C(F)(F)[C@H]3O)c1` [Compound 344], the IC50 was below 50 nM.
Same read-out and setting: in the case of `N#Cc1c(I)ccc(Oc2cc(F)cc(Cl)c2)c1Br` [Compound 96] it was above 1000 nM; in that of `CNCCOc1ccc(S(=O)(=O)C(F)(F)F)c2c1CC(F)(F)C2O` (stereo not drawn) [Compound 650], above 1000 nM.
Take `CC(C)(C)OC(=O)N1CC(Oc2ccc(S(=O)(=O)C(F)(F)F)c3c2CC(F)(F)[C@H]3O)C1` [Compound 791]: the IC50 was above 1000 nM.
